What follows are compounds tested against T1, recombinant Human CYP17 enzyme (17-20 lyase) (Homo sapiens, UniProt P05093) (assay: Cytochrome P450, 17-20 lyase (CYP17-lyase) assay, 17-α-hydroxy pregnenolone [21-3H] as substrate). Settings: human CYP17 lyase; substrate 0.25 μM; room temperature, 90 minutes.
T1 construct: made in house; host or cells: A549 cells, adenoviral expression system; purified cell membrane preparations
T1 sequence (P05093 1-508): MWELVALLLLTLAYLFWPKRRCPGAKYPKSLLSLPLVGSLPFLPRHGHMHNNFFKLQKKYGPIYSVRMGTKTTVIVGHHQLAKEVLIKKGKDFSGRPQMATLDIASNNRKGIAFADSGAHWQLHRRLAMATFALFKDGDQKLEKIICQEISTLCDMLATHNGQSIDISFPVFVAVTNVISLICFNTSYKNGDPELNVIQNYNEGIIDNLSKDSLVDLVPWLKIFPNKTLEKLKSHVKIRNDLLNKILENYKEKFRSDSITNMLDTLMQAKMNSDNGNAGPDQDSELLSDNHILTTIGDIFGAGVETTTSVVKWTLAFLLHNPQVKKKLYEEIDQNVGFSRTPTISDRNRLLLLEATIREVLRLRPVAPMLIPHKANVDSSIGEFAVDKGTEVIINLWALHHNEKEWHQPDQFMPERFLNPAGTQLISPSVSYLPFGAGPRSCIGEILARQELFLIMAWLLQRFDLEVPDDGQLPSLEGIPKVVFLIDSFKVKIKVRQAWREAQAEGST
Type: biochemical
Excerpt: 1) Cytochrome P450, 17-20 Lyase (CYP17-Lyase) Assay Development Using Recombinant Human CYP17 Enzyme and 17-α-Hydroxy Pregnenolone [21-3H] as the Substrate.
Cytochrome P450, 17-α-Hydroxylase, 17-20 lyase (CYP17) is a multi functional enzyme that plays a key role in the biosynthesis of steroid hormones. It catalyses both conventional hydroxylation and also the carbon-carbon bond cleavage reactions (Peter Lee-Robichaud et al, Biochem. J, (1997) 321, 857-63). In the hydroxylation reaction, it converts progesterone and pregnenolone to the corresponding hydroxylated products 17-α-hydroxy progesterone and 17-α-hydroxy pregnenolone. In the lyase reaction, it catalyzes the conversion of these hydroxylated substrates to Androstenedione and Dehydroepiandrosterone (DHEA) respectively. In the Cyp17 lyase assay described here, the conversion of 17-α-hydroxy pregnenolone to Dehydroepiandrosterone and acetic acid is being monitored.
Assay method was adopted from a published protocol with some modifications to suit our requirements (Dmitry N Grigoryev et al, Analytical Biochemistry, (1999) 267, 319-330). The conversion of 17-α-hydroxy pregnenolone to Dehydroepiandrosterone is accompanied by the release of acetic acid. In the Cyp17 lyase assay, 17-α-hydroxy pregnenolone labeled with tritium (3H) at position 21 is used as the substrate. Chloroform extraction removes the radioactive steroids and acetic acid is taken into aqueous layer. The tritiated acetic acid released in the assay thus extracted is quantified to determine the enzyme activity.
Initial buffer conditions were, 50 mM Phosphate buffer, pH 7.5 was used as the starting buffer for Cyp17 lyase activity based on the data published in US patent publication No. US2004/0198773 A1. […] Human Cyp 17 gene was cloned and expressed in Adenoviral expression system in A549 cell lines. The purified cell membrane preparations were used as the source for Human CYP17 enzyme. Total protein concentration: 8 mg/mL.
For routine screening, the assay was set up with 16 μg of enzyme in 50 μL reaction volume. 17α-hydroxy pregnenolone [21-3H] was added to a final concentration of 0.25 μM. NADPH is used at a final concentration of 4.2 mM. Total reaction volume was made up to 50 μL with 50 mM Phosphate buffer pH 7.5. The reaction mixture was incubated at room temperature for 90 minutes with gentle shaking. The reaction was stopped by the addition of 100 μL of buffer. 500 μL of 5% freshly prepared activated charcoal was added to the solution and mixed well by vortexing. The samples were centrifuged at 17568×g for 5 minutes. (14000 rpm). The supernatant was carefully transferred to fresh tube and 1.3 mL of scintillation fluid was added, mixed by vortexing.
The radioactivity was measured in a 1450 MicroBeta TriLux™ scintillation counter from Wallac-Perkin Elmer®, USA. The measurements were carried out in 2.0 mL Eppendorf™ tubes. Each tube was counted for 1 minute. The amount of tritiated acetic acid released is proportional to the lyase activity. Percent lyase activity in presence of inhibitor was calculated using the formula given below.
[formula] • Sample: Enzyme reaction in presence of inhibitor. • Positive control: Enzyme reaction without inhibitor but containing DMSO at 1% final concentration. • Blank—Contains all reagents except enzyme. • % Inhibition=100%−% Lyase activity
For IC50 determination, the % inhibition was plotted as a function of inhibitor concentration. The data was fitted to sigmoidal equation using Graphpad Prism® software IV to generate IC50 values.

SMILES | Lyase IC 50 nM Human
O=C1c2ccc(F)cc2CCN1c1cnccc1C(F)(F)F [Example 78A, 6-fluoro-2-(4-(trifluoromethyl)pyridin-3-yl)-3,4-dihydroisoquinolin-1(2H)-one] | Not active

Same assay, conditions: human CYP17 lyase; substrate 0.25 μM; room temperature, 90 minutes; read-out: Lyase IC 50 nM Human

SMILES | IC50
Cc1ccncc1N1CCc2ccncc2C1=O [Example 65A, 2-(4-methylpyridin-3-yl)-3,4-dihydro-2,7-naphthyridin-1(2H)-one] | 1140 nM
Cc1ccncc1N1CCc2ccc3ncsc3c2C1=O [Example 66A, 8-(4-methylpyridin-3-yl)-7,8-dihydrothiazolo[4,5-h]isoquinolin-9(6H)-one] | 11 nM
Cc1ccncc1N1CCc2cnccc2C1=O [Example 67A, 2-(4-methylpyridin-3-yl)-3,4-dihydro-2,6-naphthyridin-1(2H)-one] | 716 nM
O=c1c2cc(C(F)(F)F)ccc2ccn1-c1cncc(F)c1 [Example 68A, 2-(5-fluoropyridin-3-yl)-7-(trifluoromethyl)isoquinolin-1(2H)-one] | 282 nM
Cc1ccncc1N1CCc2cc3cn[nH]c3cc2C1=O [Example 69A, 7-(4-methylpyridin-3-yl)-6,7-dihydro-1H-pyrazolo[4,3-g]isoquinolin-8(5H)-one] | 93 nM
CC1Cc2ccc(C(F)(F)F)cc2C(=O)N1c1cnccc1C(F)(F)F (stereo not shown) [Example 70A, 3-methyl-7-(trifluoromethyl)-2-(4-(trifluoromethyl)pyridin-3-yl)-3,4-dihydroisoquinolin-1(2H)-one] | 744 nM
O=C1c2cc3[nH]ncc3cc2CCN1c1cnccc1C(F)(F)F [Example 72A, 7-(4-(trifluoromethyl)pyridin-3-yl)-6,7-dihydro-1H-pyrazolo[4,3-g]isoquinolin-8(5H)-one] | 730 nM
O=C1c2cc(C(F)(F)F)ccc2CCN1c1cnccc1C1CC1 [Example 73A, 2-(4-cyclopropylpyridin-3-yl)-7-(trifluoromethyl)-3,4-dihydroisoquinolin-1(2H)-one] | 14 nM
O=C1c2cc(Cl)ccc2CCN1c1cnccc1C1CC1 [Example 74A, 7-chloro-2-(4-cyclopropylpyridin-3-yl)-3,4-dihydroisoquinolin-1 (2H)-one] | 23 nM
CCc1ccncc1N1CCc2ccc(Cl)cc2C1=O [Example 75A, 7-chloro-2-(4-ethylpyridin-3-yl)-3,4-dihydroisoquinolin-1(2H)-one] | 8 nM
O=C1c2c(sc3ccccc23)CCN1c1cnccc1C1CC1 [Example 76A, 2-(4-cyclopropylpyridin-3-yl)-3,4-dihydrobenzo[4,5]thieno[3,2-c]pyridin-1(2H)-one] | 4.2 nM
O=C1c2c(ccc(C(F)(F)F)c2F)CCN1c1cnccc1C(F)(F)F [Example 77A, 8-fluoro-7-(trifluoromethyl)-2-(4-(trifluoromethyl)pyridin-3-yl)-3,4-dihydroisoquinolin-1(2H)-one] | 167 nM
O=C1c2cc(I)c(F)cc2CCN1c1cnccc1C(F)(F)F [Example 79A, 6-fluoro-7-iodo-2-(4-(trifluoromethyl)pyridin-3-yl)-3,4-dihydroisoquinolin-1(2H)-one] | 19 nM
O=C1c2cc(Cl)c(F)cc2CCN1c1cnccc1C(F)(F)F [Example 80A, 7-chloro-6-fluoro-2-(4-(trifluoromethyl)pyridin-3-yl)-3,4-dihydroisoquinolin-1(2H)-one] | 173 nM
O=C1c2cc(Cl)c(F)cc2CCN1c1cnccc1C1CC1 [Example 82A, 7-chloro-2-(4-cyclopropylpyridin-3-yl)-6-fluoro-3,4-dihydroisoquinolin-1(2H)-one] | 3 nM
Cc1ccncc1N1CCc2cc(F)c(Cl)cc2C1=O [Example 84A, 7-chloro-6-fluoro-2-(4-methylpyridin-3-yl)-3,4-dihydroisoquinolin-1(2H)-one] | 5.3 nM
O=C1c2cc(C(F)(F)F)c(Cl)cc2CCN1c1cnccc1C(F)(F)F [Example 85A, 6-chloro-7-(trifluoromethyl)-2-(4-(trifluoromethyl)pyridin-3-yl)-3,4-dihydroisoquinolin-1(2H)-one] | 108 nM
COc1cc2c(cc1Cl)C(=O)N(c1cnccc1C)CC2 [Example 86A, 7-chloro-6-methoxy-2-(4-methylpyridin-3-yl)-3,4-dihydroisoquinolin-1(2H)-one] | 11 nM
Cc1ccncc1N1CCc2cc(C#N)c(Cl)cc2C1=O [Example 88A, 7-chloro-2-(4-methylpyridin-3-yl)-1-oxo-1,2,3,4-tetrahydroisoquinoline-6-carbonitrile] | 11 nM
COc1cc2c(cc1Cl)C(=O)N(c1cnccc1C1CC1)CC2 [Example 89A, 7-chloro-2-(4-cyclopropylpyridin-3-yl)-6-methoxy-3,4-dihydroisoquinolin-1(2H)-one] | 10 nM
N#Cc1cc2c(cc1Cl)C(=O)N(c1cnccc1C1CC1)CC2 [Example 91A, 7-chloro-2-(4-cyclopropylpyridin-3-yl)-1-oxo-1,2,3,4-tetrahydroisoquinoline-6-carbonitrile] | 11 nM

From patent publication US8946260B2, “17α-hydroxylase/C17,20-lyase inhibitors” (Novartis AG, priority 2010, dated 2015)
